Data on 19 compounds can be found in ChEMBL document CHEMBL2150959, “Histamine H3 receptor as a drug discovery target” (J Med Chem, 2011).

Data set [1] deals with T1, Histamine H3 receptor (Homo sapiens, UniProt Q9Y5N1). Put plainly: Binding affinity to human histamine H3 receptor.
Another data set addresses Histamine H1 receptor (Homo sapiens, UniProt P35367).
Data set [2] in a line: Half life in dog. The conditions noted are these: in vivo. Type of data set: ADME, organism-based, Canis lupus familiaris.
Data set [3] can be described thus: Oral bioavailability in dog. Type of data set: ADME, organism-based, Canis lupus familiaris. The conditions noted are these: in vivo.
Data set [4] in a line: Oral bioavailability in rat. Type of data set: ADME, organism-based. The conditions noted are these: in vivo.
A short description of data set [5]: Half life in rat. The conditions noted are these: in vivo. Type of data set: ADME, organism-based.
Data set [6] can be described thus: Volume of distribution in rat. It is filed as ADME, organism-based. The conditions noted are these: in vivo.
In data set [7] the target is T1, Histamine H3 receptor. Put plainly: Inverse agonist activity at human histamine H3 receptor by GTPgammaS binding assay. Type of data set: functional. (In general: Binding of GTPγS marks nucleotide exchange on a G protein.)
A short description of data set [8]: Half life in monkey. Type of data set: ADME, organism-based, Macaca mulatta. Particulars: rhesus monkey, in vivo.
Data set [9] concerns the target Histamine H3 receptor (Rattus norvegicus, UniProt Q9QYN8). Put plainly: Binding affinity to rat cortical histamine H3 receptor.
A short description of data set [10]: Oral bioavailability in monkey. It is filed as ADME, organism-based, Macaca mulatta. The conditions noted are these: rhesus monkey, in vivo.
Data set [11] can be described thus: Oral bioavailability in rat at 1 mg/kg. It is filed as ADME, organism-based. Particulars: in vivo.
The nature of data set [12]: Oral bioavailability in dog at 1 mg/kg. It is filed as ADME, organism-based, Canis lupus familiaris. The conditions noted are these: in vivo.
The nature of data set [13]: Oral bioavailability in monkey at 1 mg/kg. The conditions noted are these: rhesus monkey, in vivo. It is filed as ADME, organism-based, Macaca mulatta.
Data set [14] can be described thus: Half life in rat at 1 mg/kg, po. It is filed as ADME, organism-based. Further details: dose 1 mg/kg, route oral. Particulars: in vivo.
A short description of data set [15]: Half life in human plasma. It is filed as ADME, cell-free.
Data set [16] has as its system Cavia porcellus. Put plainly: Antiinflammatory activity in po dosed wheal and flare guinea pig model. Type of data set: functional. The conditions noted are these: read-out: ID50 (the source's name).
For data set [17], the system named is Cavia porcellus. Nature of the data set: Antiinflammatory activity in iv dosed wheal and flare guinea pig model. Particulars: read-out: ID50 (the source's name). It is filed as functional.
For a further data set, the system named is Rhesus monkey. Nature of the data set: Reduction of food intake in rhesus monkey at 1 mg/kg. Type of data set: functional, Macaca mulatta. Further details: scale not given: the % may be the effect or the level left.
For data set [18], the system named is Rattus norvegicus. Put plainly: Increase in paraventricular histamine levels in normal rat at 15 mg/kg, po. Type of data set: functional.
In data set [19] the test system is Rattus norvegicus. Nature of the data set: Increase in acetyl choline release in sc dosed rat prefrontal cortex. Type of data set: functional. Particulars: read-out: MED.
Data set [20] relates to Rattus norvegicus. Put plainly: Efficacy in sc dosed novel object recognition 24 hrs delay rat model. It is filed as functional. The conditions noted are these: read-out: MED.
Data set [21] has as its system Rattus norvegicus. Put plainly: Increase in histamine release in sc dosed rat prefrontal cortex. It is filed as functional. Particulars: read-out: MED.

Sequence of Histamine H3 receptor (Rattus norvegicus, UniProt Q9QYN8) (Q9QYN8 whole entry): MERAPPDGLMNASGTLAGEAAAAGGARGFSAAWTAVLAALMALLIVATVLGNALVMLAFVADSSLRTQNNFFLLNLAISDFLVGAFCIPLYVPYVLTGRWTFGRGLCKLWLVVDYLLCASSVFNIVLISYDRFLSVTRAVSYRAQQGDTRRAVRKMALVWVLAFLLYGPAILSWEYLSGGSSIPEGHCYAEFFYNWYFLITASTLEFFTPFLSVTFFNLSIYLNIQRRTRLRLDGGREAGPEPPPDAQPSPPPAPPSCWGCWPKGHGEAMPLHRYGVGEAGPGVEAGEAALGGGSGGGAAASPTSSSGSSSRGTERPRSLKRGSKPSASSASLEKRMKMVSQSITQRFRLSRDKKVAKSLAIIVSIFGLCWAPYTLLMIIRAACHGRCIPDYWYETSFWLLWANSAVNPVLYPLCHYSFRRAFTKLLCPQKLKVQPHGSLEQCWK
T1 sequence (Q9Y5N1 whole entry): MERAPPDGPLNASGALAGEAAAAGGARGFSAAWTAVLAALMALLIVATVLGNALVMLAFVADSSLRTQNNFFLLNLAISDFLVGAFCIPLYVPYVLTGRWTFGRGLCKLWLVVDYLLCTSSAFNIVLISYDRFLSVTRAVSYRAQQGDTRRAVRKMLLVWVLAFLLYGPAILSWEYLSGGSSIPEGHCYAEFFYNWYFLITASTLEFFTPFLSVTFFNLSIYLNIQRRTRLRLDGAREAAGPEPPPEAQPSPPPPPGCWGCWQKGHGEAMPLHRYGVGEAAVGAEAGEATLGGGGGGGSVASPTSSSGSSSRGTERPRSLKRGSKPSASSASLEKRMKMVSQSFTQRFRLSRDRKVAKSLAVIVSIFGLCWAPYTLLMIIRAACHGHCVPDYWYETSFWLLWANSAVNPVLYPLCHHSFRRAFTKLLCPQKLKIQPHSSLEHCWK
Sequence of Histamine H1 receptor (P35367 whole entry): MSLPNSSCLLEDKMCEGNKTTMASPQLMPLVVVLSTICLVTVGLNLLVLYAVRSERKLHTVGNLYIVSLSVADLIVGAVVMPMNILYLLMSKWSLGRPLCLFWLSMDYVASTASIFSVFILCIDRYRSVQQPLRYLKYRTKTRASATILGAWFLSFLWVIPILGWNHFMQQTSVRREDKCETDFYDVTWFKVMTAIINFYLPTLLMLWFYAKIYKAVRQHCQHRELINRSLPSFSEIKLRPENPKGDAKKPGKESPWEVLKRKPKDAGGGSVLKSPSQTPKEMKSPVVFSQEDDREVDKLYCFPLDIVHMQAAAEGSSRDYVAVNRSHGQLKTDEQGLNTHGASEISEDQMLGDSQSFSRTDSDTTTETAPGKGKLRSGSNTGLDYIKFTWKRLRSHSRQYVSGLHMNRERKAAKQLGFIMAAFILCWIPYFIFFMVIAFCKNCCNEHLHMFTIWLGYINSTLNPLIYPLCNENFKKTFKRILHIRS

For `C[C@@H](N)C(=O)N1CCN(CCCOc2ccc(C(=O)C3CC3)cc2)CC1`, the Ki on Histamine H3 receptor [1] (read-out: pKi (converted)) was 794 nM.
`O=c1c2ccccc2c(Cc2ccc(Cl)cc2)nn1C[C@H]1CCCN1CCCCc1ccc(OCCCN2CCCCCC2)cc1` [GSK-1004723] had a Ki on Histamine H1 receptor of 15.8 nM.
As for `N#Cc1ccc(-c2ccc(OCCCN3CCCN(C(=O)[C@@H](Cc4cscn4)NC(=O)c4ccco4)CC3)cc2)cc1`, the Ki at Histamine H3 receptor [1] (read-out: pKi (converted)) was 1.58 nM.
With `CS(=O)(=O)c1ccc(C(=O)N2CCN(c3ccc(OC4CCN(C5CCC5)CC4)cc3)CC2)cc1`, the half-life in [2] is 5 h; in [5], 2 h. The bioavailability in data set [3] is 90%; in [4], over 50%. The Ki on Histamine H1 receptor was 2510 nM; at Histamine H3 receptor [1] (read-out: pKi (converted)) it was 0.316 nM.
The compound `c1cc(OCCCN2CCCCC2)ccc1CN1CCCCC1` [JNJ-5207852] displayed a Vd in data set [6] of over 100 L/kg. Besides, the half-life in data set [5] was 15 h.
For `CC(C)N1CCCN(C(=O)C2CCN(c3ccc(C(F)(F)F)nc3)CC2)CC1`, the Ki on Histamine H3 receptor [1] (read-out: pKi (converted)) is 0.316 nM. At Histamine H3 receptor [7], the IC50 is 2.51 nM.
For the compound `C[C@@H]1CCCN1CCc1cc2cc(-c3cn[nH]c3)ccc2o1`, the half-life in data set [8] is 1.8 h; in data set [2] it was 1.7 h; in data set [5] it was 2.9 h. Moreover, the bioavailability was 30% in [3], 26% in [4] and 8% in data set [10]. For the same compound, the values for the Ki at Histamine H3 receptor [1] (read-out: pKi (converted)) and at Histamine H3 receptor [9] (read-out: pKi (converted)) were 0.501 nM and 3.16 nM, respectively.
Turning to `CC(C)(C)CCC#C[C@@H]1C[C@H]1c1c[nH]cn1` [CIPRALISANT], the Ki on Histamine H3 receptor [9] (read-out: Ki) worked out at 0.18 nM.
For `C[C@@H](NC(=O)c1ccco1)C(=O)N1CCN(CCCOc2ccc(C(=O)C3CC3)cc2)CC1`, on Histamine H3 receptor [9] (read-out: pKi (converted)), the Ki was 0.631 nM.
On to `C[C@@H]1CCCN1CCc1cc2cc(-c3ccc(C#N)cc3)ccc2o1`, for which the bioavailability was determined as 52% in data set [11], 74% in [12] and 89% in data set [13].
Take `C[C@@H]1CCCN1CCc1ccc2cc(-n3ncccc3=O)ccc2c1`: the half-life in [14] was 4.9 h. This compound also came in with a bioavailability in data set [11] of 84%. Moreover, the Ki at Histamine H3 receptor [1] (read-out: Ki) was found to be 0.8 nM.
In turn, `C[C@H](Cc1c[nH]cn1)/N=C(\c1ccccc1)c1ccccc1O` displayed a half-life in data set [15] of over 24 h.
`C[C@@H]1CCCN1CCc1ccc2cc(-c3ccc(C#N)cc3)ccc2c1` gave a half-life in data set [5] of 5.5 h.
As to `CC1(C)CCCN(CCCOc2ccc(C3CCN(C(=O)c4ccc(CCC(=O)O)c5ccccc45)CC3)cc2)C1`, the Ki was 12.6 nM on Histamine H1 receptor and 50.1 nM on Histamine H3 receptor [1] (read-out: pKi (converted)). Besides, the ED50 is 2.8 mg/kg in the data set with Cavia porcellus [16] and 0.6 mg/kg in the data set on Cavia porcellus [17].
For `CNC(=O)c1ccc(Oc2ccc3c(c2)CCN(C2CCC2)CC3)nc1` [GSK189254], the Ki on Histamine H3 receptor [9] (read-out: pKi (converted)) is 0.631 nM.
In the case of `O=C(/C=C/c1ccc(C(F)(F)F)cc1)N1CCC[C@H]1CN1CCCC1`, the values for the Activity in the data set on Rhesus monkey and in the data set on Rattus norvegicus [18] were 75% and 339%, respectively.
As for `CCNC(=O)[C@H]1C[C@@](F)(c2ccc(CN3CCCC3)c(F)c2)C1` [PF-03654746], the values for the minimal effective dose in the data set on Rattus norvegicus [19], in the data set with Rattus norvegicus [20] and with Rattus norvegicus [21] were 3.2 mg/kg, 0.32 mg/kg and 1 mg/kg, respectively.
For the compound `C[C@H]1CC[C@H](C)N1CCCOc1ccc(-c2ccc(C(=O)N3CCOCC3)cc2)cc1` (single isomer, unassigned) [A-349,821], the Ki on Histamine H3 receptor [1] (read-out: pKi (converted)) was 1.58 nM.
In data set [4], `Cc1cc2ncc(-c3ccc4cc(CCN5CCC[C@H]5C)ccc4n3)c(C)n2n1` came in with a bioavailability of 90%. The same compound had a half-life in data set [5] of 5.3 h.

By half-life is commonly meant the time in which the quantity being followed falls by half. The term bioavailability denotes the share of a dose that reaches the circulation, judged against a reference dose that is usually intravenous. As usually defined, the Vd is the apparent volume that relates the amount in the body to the concentration in plasma or blood. What is called IC50 is the point on the concentration scale where inhibition reaches its midpoint.
